ID50 data for 6 molecules are collected here from ChEMBL document CHEMBL1147369, “Novel Diterpenoids from Taxus chinensis” (J Nat Prod, 1993).

SMILES strings stand for the structures. Some results are limits rather than exact numbers.

The nature of this assay: Inhibition of tubulin microtubule disassembly.
The molecule `CC(=O)O[C@@]12CO[C@@H]1C[C@@H](O)[C@@]1(C)C(=O)C(=O)C3=C(C)[C@@H](O)C[C@@](O)([C@@H](OC(=O)c4ccccc4)[C@H]21)C3(C)C` registered an ID50 of more than 100 µM.
For the molecule `CC(=O)O[C@H]1C(=O)[C@]2(CO)[C@H](O)C[C@H]3OC[C@@]3(OC(C)=O)[C@H]2[C@H](OC(=O)c2ccccc2)[C@]2(O)C[C@H](O)C(C)=C1C2(C)C`, the ID50 was more than 100 µM.
The value for `CC(=O)O[C@H]1C(=O)[C@@]2(C)[C@H]([C@H](OC(=O)c3ccccc3)[C@]3(O)C[C@H](OC(=O)[C@H](O)[C@@H](NC(=O)c4ccccc4)c4ccccc4)C(C)=C1C3(C)C)[C@]1(OC(C)=O)CO[C@@H]1C[C@@H]2O` was 0.29 µM; that for `C=C1[C@@H](O)C[C@H](OC(C)=O)[C@@]2(C)[C@@H](OC(C)=O)[C@H](OC(=O)c3ccccc3)C3=C(C)[C@@H](O)C[C@@]3(C(C)(C)O)[C@@H](OC(C)=O)[C@H]12` was more than 100 µM; that for `CC(=O)O[C@H]1C[C@H]2OC[C@@]2(OC(C)=O)[C@H]2[C@H](OC(C)=O)[C@]3(C(C)(C)O)C[C@H](OC(=O)/C=C/c4ccccc4)C(C)=C3[C@@H](OC(=O)c3ccccc3)[C@H](OC(C)=O)[C@]12C` was more than 100 µM.
With `CC(=O)O[C@H]1C[C@]2(C(C)(C)O)C(=C1C)[C@@H](OC(=O)c1ccccc1)[C@H](OC(=O)c1ccccc1)[C@]1(C)[C@@H](OC(C)=O)C[C@H]3OC[C@@]3(OC(C)=O)[C@H]1[C@@H]2OC(=O)c1ccccc1` the figure was more than 100 µM.
